# Experimental data: US20030060445A1, “Nutritional formulation containing prebiotic substances” (priority 2000, published 2003)
# Assays:
# Assay type in all cases: cell-based
# Bacteroides [1] = test: Media pH of Bacteroides batch culture (Example 3); settings: PYG batch culture, 37° C., anaerobic; pH monitored at various time points; FIG. 3
# Description: (§1) Identical inoculua (A600∇1.0) of overnight cultures (PYG broth, 37° C., anaerobic) of each organism was grown in batch culture (37° C., anaerobic) with constant stirring. Carbohydrate-deficient batch culture media (PYG) was supplemented as above. The media pH were monitored at various time points.
# Clostridia [2] = test: Media pH of Clostridia batch culture (Example 3); settings: PYG batch culture, 37° C., anaerobic; pH monitored at various time points; FIG. 3
# Description: as §1
# B. lactis = test: Media pH of Bifidobacteria batch culture (Example 3); settings: PYG batch culture, 37° C., anaerobic; pH monitored at various time points; FIG. 3
# Description: as §1
# Clostridia [3] = test: Batch culture growth of Clostridia, titers on selective agar (Example 1); settings: carbohydrate-deficient PYG batch culture, 37° C., anaerobic; supplement in place of glucose 3.0 g/L; FIG. 1
# Description: (§2) Identical inoculua (A600∇1.0) of overnight cultures (PYG broth, 37° C., anaerobic) of each organism (Clostridia, Bacteroides, or B. lactis) were grown in batch culture (37° C., anaerobic) with constant stirring. Carbohydrate-deficient batch culture media (PYG) was supplemented with either glucose (3.0 g/L), oligofructose (FOS at 3.0 g/L), sialyllactose (3′- or 6′-sialyllactose at […]), or oligofructose plus sialyllactose (3.0 g/l and 100 mg/L, respectively). Growth was monitored at various time points (see FIG. 1) by determining the titers of the bacteria on selective agar (BIM-25 agar for Bifidobacteria and Wilkens-Chalgren agar for Clostridia and Bacteroides).
# Bacteroides [4] = test: Batch culture growth of Bacteroides, titers on selective agar (Example 1); settings: carbohydrate-deficient PYG batch culture, 37° C., anaerobic; supplement in place of glucose 3.0 g/L; FIG. 1
# Description: as §2
Compound,"media pH change, Bacteroides culture (Bacteroides [1])","media pH change, Clostridia culture (Clostridia [2])","media pH change, Bifidobacteria (B. lactis / B. infantis) culture (B. lactis)",growth of Clostridia (Clostridia [3]),growth of Bacteroides (Bacteroides [4])
sialyllactose,the pH increased,the pH increased,the pH increased,,
CC(=O)N[C@H]1[C@H]([C@H](O)[C@H](O)CO)O[C@@](O[C@H]2[C@@H](O)[C@@H](CO)O[C@@H](O[C@H]3[C@H](O)[C@@H](O)C(O)O[C@@H]3CO)[C@@H]2O)(C(=O)O)C[C@@H]1O (some centres unmarked) [3′-sialyllactose],,,,essentially no growth,essentially no growth
